For assay [1], the target named is T1, hDDO (human D-aspartate oxidase) (Homo sapiens, UniProt Q99489).
T1 sequence (Q99489 1-341): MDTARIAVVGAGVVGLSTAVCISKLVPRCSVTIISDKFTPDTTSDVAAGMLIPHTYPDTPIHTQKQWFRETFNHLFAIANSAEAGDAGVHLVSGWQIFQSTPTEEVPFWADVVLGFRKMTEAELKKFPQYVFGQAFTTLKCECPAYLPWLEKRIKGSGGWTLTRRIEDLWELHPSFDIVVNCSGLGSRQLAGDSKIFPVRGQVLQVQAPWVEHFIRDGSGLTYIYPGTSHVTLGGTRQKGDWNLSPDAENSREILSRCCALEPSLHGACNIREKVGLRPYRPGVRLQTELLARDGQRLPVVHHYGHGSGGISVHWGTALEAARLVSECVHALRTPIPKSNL
Description: biochemical. Further details: gene DDO.

In assay [2] the target is T1, hDDO (human D-aspartate oxidase). The assay can be described thus: coupled HRP / Amplex UltraRed fluorescence assay. The class given is biochemical. Details: gene DDO; recombinant.
In assay [3] the target is T2, mDDO (mouse D-aspartate oxidase) (Mus musculus, UniProt Q922Z0).
T2 construct: gene Ddo; recombinant
T2 sequence (Q922Z0 1-341): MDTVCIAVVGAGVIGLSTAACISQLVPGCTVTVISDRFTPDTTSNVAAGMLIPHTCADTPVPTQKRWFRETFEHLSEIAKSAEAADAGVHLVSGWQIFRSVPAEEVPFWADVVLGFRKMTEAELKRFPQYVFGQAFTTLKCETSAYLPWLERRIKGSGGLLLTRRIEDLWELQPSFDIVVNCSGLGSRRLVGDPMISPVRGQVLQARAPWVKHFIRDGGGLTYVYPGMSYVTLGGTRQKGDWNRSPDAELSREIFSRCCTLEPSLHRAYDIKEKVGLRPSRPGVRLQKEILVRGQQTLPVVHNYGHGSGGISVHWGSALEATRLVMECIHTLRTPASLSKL
The assay can be described thus: coupled HRP / Amplex UltraRed fluorescence assay. It counts as biochemical. Conditions: D-Asp 7.5 mM; FAD 4 and 100 μM; inactive up to 300 μM.

[4] abbreviates: read-out: Concentration (μM) / 1000.
[5] abbreviates: read-out: Concentration (μM) / 100.

The structures appear in SMILES notation. Like-named read-outs stand apart in the source and are kept apart here. Some results are limits rather than exact numbers.

The term IC50 denotes the concentration that gives 50% inhibition. A low value points to greater potency in that assay. In turn, `Cc1cc2c(s1)Nc1ccccc1N=C2N1CCN(C)CC1` [olanzapine] yielded an IC50 in assay [1] of 23.4 ± 1.6 µM.

Turning to `CN(C)CCCN1c2ccccc2Sc2ccc(Cl)cc21` [chlorpromazine], the activity at 1000 µM in assay [2] (setting [4]) was over 90%.

In the case of `CN1CCN(C2=Nc3cc(Cl)ccc3Nc3ccccc32)CC1` [clozapine], in assay [3], the “coupled HRP / Amplex UltraRed fluorescence assay” value was “both mDDO and hDDO was unaffected by clozapine at all concentrations tested”. Further, the activity at 1000 µM in assay [2] (setting [5]) was over 95%.

Turning to `CC(NC(C)(C)C)C(=O)c1cccc(Cl)c1` (stereo not drawn) [bupropion], the activity at 1000 µM in assay [2] (setting [4]) amounted to 89%.

Take `O=C(CCCN1CCC(O)(c2ccc(Cl)cc2)CC1)c1ccc(F)cc1` [haloperidol]: in assay [2] (setting [5]), the activity at 1000 µM is 100%.

The values are drawn from publication PMC5385520 (Scientific Reports, 2017).
